According to ChEMBL document CHEMBL5143740, “Discovery of Novel Phosphoinositide-3-Kinase α Inhibitors with High Selectivity, Excellent Bioavailability, and Long-Acting Efficacy for Gastric Cancer” (J Med Chem, 2022):
Calls of active or inactive are those of the source. The rule behind the calls is not given here.

What was measured:
[1] = system: MGC-803; test: Induction of apoptosis in human MGC-803 cells assessed as necrotic cells at 2 uM incubated for 36 hrs by annexin V-FITC based flow cytometry analysis (reference value: […]); assay type: functional
[2] = system: MGC-803; test: Induction of apoptosis in human MGC-803 cells assessed as necrotic cells at 4 uM incubated for 36 hrs by annexin V-FITC based flow cytometry analysis (reference value: […]); assay type: functional
[3] = system: MGC-803; test: Antitumor activity against human MGC-803 cells xenografted in BALB/c nude mouse assessed as reduction in tumor volume at 30 mg/kg, po administered every day for 3 weeks by vernier caliper method; assay type: functional, organism-based
[4] = Toxicity in BALB/c mouse xenografted with human MG C-803cells assessed as effect on body weight at 30 mg/kg, po administered every day for 3 week in presence of taxol; assay type: organism-based; settings: in vivo, 504 h, time 3 weeks
[5] = system: U-251; test: Antiproliferative activity against human U-251 cells assessed as inhibition of cell growth incubated for 72 hrs by CCK8 assay; assay type: functional, cell-based; settings: U-251, 72 h
[6] = system: MGC-803; test: Antitumor activity against human MGC-803 cells xenografted in BALB/c nude mouse assessed as tumor growth inhibition at 30 mg/kg, po administered every day for 3 weeks in presence of taxol; assay type: functional; settings: MGC-803, 504 h, read-out: TGI
[7] = system: MGC-803; test: Induction of apoptosis in human MGC-803 cells assessed as late apoptotic cells at 4 uM incubated for 36 hrs by annexin V-FITC based flow cytometry analysis (reference value: 2.61 %); assay type: functional
[8] = Tmax in Sprague-Dawley rat at 10 mg/kg, po measured after 24 hrs; assay type: ADME, organism-based; settings: in vivo
[9] = system: MDA-MB-231; test: Antiproliferative activity against human MDA-MB-231 cells assessed as inhibition of cell growth incubated for 72 hrs by CCK8 assay; assay type: functional, cell-based; settings: MDA-MB-231, 72 h
[10] = system: MGC-803; test: Antitumor activity against human MGC-803 cells xenografted in BALB/c nude mouse assessed as tumor growth inhibition at 10 mg/kg, ip administered every day for 3 weeks; assay type: functional; settings: MGC-803, 504 h, read-out: TGI
[11] = target: Phosphatidylinositol 4,5-bisphosphate 3-kinase catalytic subunit beta isoform (Homo sapiens, UniProt P42338); test: Inhibition of PI3Kbeta (unknown origin) in presence of [33P]-ATP incubated for 2 hrs by hotspot kinase assay
[12] = system: MCF7; test: Antiproliferative activity against human MCF7 cells assessed as inhibition of cell growth incubated for 72 hrs by CCK8 assay; assay type: functional, cell-based; settings: MCF7, 72 h
[13] = species: Homo sapiens; test: Selectivity index, ratio of IC50 for inhibition of PI3Kbeta (unknown origin) to IC50 for inhibition of PI3Kalpha (unknown origin)
[14] = system: MGC-803; test: Induction of apoptosis in human MGC-803 cells assessed as late apoptotic cells at 8 uM incubated for 36 hrs by annexin V-FITC based flow cytometry analysis (reference value: 2.61 %); assay type: functional
[15] = Clearance in Sprague-Dawley rat at 1 mg/kg, iv measured after 24 hrs; assay type: ADME, organism-based; settings: in vivo
[16] = system: MGC-803; test: Induction of apoptosis in human MGC-803 cells assessed as viable cells at 8 uM incubated for 36 hrs by annexin V-FITC based flow cytometry analysis (reference value: 94.51 %); assay type: functional; settings: read-out: Activity
[17] = Tmax in Sprague-Dawley rat at 1 mg/kg, iv measured after 24 hrs; assay type: ADME, organism-based; settings: in vivo
[18] = AUC (0 to t) in Sprague-Dawley rat at 1 mg/kg, iv measured after 24 hrs; assay type: ADME, organism-based; design: time 24 hrs, dose 1 mg/kg, route iv; settings: in vivo
[19] = system: MGC-803; test: Inhibition of PI3K signalling pathway in human MGC-803 cells assessed as reduction in P70S6K phosphorylation at 2 to 8 uM by Western blotting analysis; assay type: cell-based; settings: dose 2-8 µM
[20] = Half life in Sprague-Dawley rat at 10 mg/kg, po measured after 24 hrs; assay type: ADME, organism-based; settings: in vivo
[21] = system: MGC-803; test: Inhibition of cell invasion in human MGC-803 cells at 2 to 8 uM incubated for 24 hrs by microscopic analysis; assay type: functional, cell-based; settings: dose 2-8 µM
[22] = system: RPMI-8226; test: Antiproliferative activity against human RPMI-8226 cells assessed as inhibition of cell growth incubated for 72 hrs by CCK8 assay; assay type: functional, cell-based; settings: RPMI-8226, 72 h
[23] = target: Phosphatidylinositol 4,5-bisphosphate 3-kinase catalytic subunit alpha isoform (Homo sapiens, UniProt P42336); test: Inhibition of PI3Kalpha (unknown origin) using PIP2 as substrate in presence of ATP measured after 1 hr by ADP-Glo assay
[24] = species: Homo sapiens; test: Selectivity index, ratio of IC50 for inhibition of PI3Kgamma (unknown origin) to IC50 for inhibition of PI3Kalpha (unknown origin)
[25] = species: Homo sapiens; test: Selectivity index, ratio of IC50 for inhibition of PI3Kdelta (unknown origin) to IC50 for inhibition of PI3Kalpha (unknown origin)
[26] = system: MOLT-4; test: Antiproliferative activity against human MOLT-4 cells assessed as inhibition of cell growth incubated for 72 hrs by CCK8 assay; assay type: functional, cell-based; settings: MOLT-4, 72 h
[27] = AUC (0 to t) in Sprague-Dawley rat at 10 mg/kg, po measured after 24 hrs; assay type: ADME, organism-based; design: dose 10 mg/kg, time 24 hrs, route po; settings: in vivo
[28] = system: HepG2; test: Antiproliferative activity against human HepG2 cells assessed as inhibition of cell growth incubated for 72 hrs by CCK8 assay; assay type: functional, cell-based; settings: HepG2, 72 h
[29] = system: MGC-803; test: Induction of apoptosis in human MGC-803 cells assessed as necrotic cells at 8 uM incubated for 36 hrs by annexin V-FITC based flow cytometry analysis (reference value: […]); assay type: functional
[30] = system: MGC-803; test: Antiproliferative activity against human MGC-803 cells assessed as inhibition of cell growth incubated for 72 hrs by CCK8 assay; assay type: functional, cell-based; settings: MGC-803, 72 h
[31] = system: MGC-803; test: Induction of apoptosis in human MGC-803 cells assessed as early apoptotic cells at 8 uM incubated for 36 hrs by annexin V-FITC based flow cytometry analysis (reference value: 2.49 %); assay type: functional
[32] = system: MGC-803; test: Antimetastatic activity against human MGC-803 cells assessed as […] of E-cadherin expression in at 2 to 8 uM by Western blot analysis; assay type: functional, cell-based; settings: dose 2-8 µM
[33] = system: MGC-803; test: Downregulation of PI3Kalpha protein expression in human MG C-803 cells at 2 to 8 uM by Western blotting analysis; assay type: functional, cell-based; settings: dose 2-8 µM
[34] = system: MGC-803; test: Induction of apoptosis in human MGC-803 cells assessed as viable cells at 2 uM incubated for 36 hrs by annexin V-FITC based flow cytometry analysis (reference value: 94.51 %); assay type: functional; settings: read-out: Activity
[35] = Oral bioavailability in Sprague-Dawley rat at 10 mg/kg measured after 24 hrs; assay type: ADME, organism-based; settings: in vivo
[36] = Cmax in Sprague-Dawley rat at 1 mg/kg, iv measured after 24 hrs; assay type: ADME, organism-based; design: time 24 hrs, dose 1 mg/kg, route iv; settings: in vivo
[37] = system: MGC-803; test: Induction of apoptosis in human MGC-803 cells assessed as viable cells at 4 uM incubated for 36 hrs by annexin V-FITC based flow cytometry analysis (reference value: 94.51 %); assay type: functional; settings: read-out: Activity

Chain of Phosphatidylinositol 4,5-bisphosphate 3-kinase catalytic subunit alpha isoform (P42336 whole entry, canonical isoform): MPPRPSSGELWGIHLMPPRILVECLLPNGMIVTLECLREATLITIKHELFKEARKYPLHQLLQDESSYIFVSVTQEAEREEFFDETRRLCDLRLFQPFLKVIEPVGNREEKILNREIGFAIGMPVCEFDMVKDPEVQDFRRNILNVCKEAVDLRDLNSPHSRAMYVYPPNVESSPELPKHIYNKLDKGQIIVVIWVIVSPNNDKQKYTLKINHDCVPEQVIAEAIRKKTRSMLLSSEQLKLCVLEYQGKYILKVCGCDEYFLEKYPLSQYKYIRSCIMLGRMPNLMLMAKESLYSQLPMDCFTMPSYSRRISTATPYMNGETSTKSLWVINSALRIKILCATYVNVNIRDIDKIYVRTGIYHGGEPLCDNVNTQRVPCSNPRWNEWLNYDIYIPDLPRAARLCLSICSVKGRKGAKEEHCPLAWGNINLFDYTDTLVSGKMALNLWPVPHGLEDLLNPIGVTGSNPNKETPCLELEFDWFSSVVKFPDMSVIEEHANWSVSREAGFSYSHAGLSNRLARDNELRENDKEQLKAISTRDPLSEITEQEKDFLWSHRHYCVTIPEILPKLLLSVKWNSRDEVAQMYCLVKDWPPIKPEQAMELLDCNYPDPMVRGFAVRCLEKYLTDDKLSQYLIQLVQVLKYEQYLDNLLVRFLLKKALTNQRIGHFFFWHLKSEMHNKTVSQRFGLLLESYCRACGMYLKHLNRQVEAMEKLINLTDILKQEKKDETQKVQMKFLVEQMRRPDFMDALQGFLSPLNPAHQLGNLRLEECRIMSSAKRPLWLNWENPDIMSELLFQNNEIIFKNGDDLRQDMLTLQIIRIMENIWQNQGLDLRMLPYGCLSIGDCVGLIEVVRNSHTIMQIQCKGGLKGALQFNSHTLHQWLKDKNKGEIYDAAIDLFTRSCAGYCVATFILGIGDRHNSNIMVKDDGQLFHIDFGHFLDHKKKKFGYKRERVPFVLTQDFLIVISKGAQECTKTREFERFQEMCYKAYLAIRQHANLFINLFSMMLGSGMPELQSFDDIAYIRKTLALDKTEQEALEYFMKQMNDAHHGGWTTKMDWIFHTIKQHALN
Chain of Phosphatidylinositol 4,5-bisphosphate 3-kinase catalytic subunit beta isoform (P42338 whole entry, canonical isoform): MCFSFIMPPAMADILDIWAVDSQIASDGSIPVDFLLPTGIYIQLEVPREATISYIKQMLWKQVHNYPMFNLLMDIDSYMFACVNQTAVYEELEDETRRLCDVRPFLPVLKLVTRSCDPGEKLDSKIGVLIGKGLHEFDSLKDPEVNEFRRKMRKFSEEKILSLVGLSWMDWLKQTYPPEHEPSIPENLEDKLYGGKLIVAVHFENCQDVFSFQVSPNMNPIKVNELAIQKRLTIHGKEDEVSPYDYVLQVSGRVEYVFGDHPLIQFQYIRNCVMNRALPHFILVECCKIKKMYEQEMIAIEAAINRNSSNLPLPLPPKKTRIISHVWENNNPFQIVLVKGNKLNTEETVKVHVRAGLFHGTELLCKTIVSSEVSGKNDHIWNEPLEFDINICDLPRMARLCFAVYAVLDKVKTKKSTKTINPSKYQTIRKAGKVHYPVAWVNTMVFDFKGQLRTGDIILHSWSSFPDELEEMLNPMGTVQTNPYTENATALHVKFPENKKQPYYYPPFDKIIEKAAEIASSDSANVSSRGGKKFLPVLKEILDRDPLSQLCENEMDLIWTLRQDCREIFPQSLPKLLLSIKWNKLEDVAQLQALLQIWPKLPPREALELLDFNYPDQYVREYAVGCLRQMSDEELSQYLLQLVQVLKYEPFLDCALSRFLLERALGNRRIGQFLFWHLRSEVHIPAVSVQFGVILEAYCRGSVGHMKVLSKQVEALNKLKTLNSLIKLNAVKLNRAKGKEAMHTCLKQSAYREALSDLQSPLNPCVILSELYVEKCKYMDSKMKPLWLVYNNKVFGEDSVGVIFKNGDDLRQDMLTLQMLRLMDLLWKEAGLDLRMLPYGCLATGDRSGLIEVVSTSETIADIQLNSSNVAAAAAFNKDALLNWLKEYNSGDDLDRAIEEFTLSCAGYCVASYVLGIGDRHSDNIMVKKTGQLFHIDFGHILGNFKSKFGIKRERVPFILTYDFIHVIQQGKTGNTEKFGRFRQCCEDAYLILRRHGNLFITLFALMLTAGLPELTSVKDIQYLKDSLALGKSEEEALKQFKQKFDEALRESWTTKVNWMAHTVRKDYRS

- IC50 [5]: 430 nM
- Tmax [8]: 9.33 h
- IC50 [9]: 430 nM
- IC50 [11]: 146 nM
- IC50 [12]: 430 nM
- Ratio IC50 [13]: 33
- clearance [15]: 5.72 mL/min/kg
- Tmax [17]: 10.8 s
- AUC(0-t) at 24 h [18]: 2240 ng·h/mL
- half-life [20]: > 600 min
- IC50 [22]: 430 nM
- IC50 [23]: 4.4 nM
- Ratio IC50 [24]: 29
- Ratio IC50 [25]: 34
- IC50 [26]: 430 nM
- AUC(0-t) at 24 h [27]: 36700 ng·h/mL
- IC50 [28]: 430 nM
- IC50 [30]: 430 nM
- bioavailability [35]: 130%
- Cmax [36]: 455 ng/mL
Compound: Nc1nc2cc(-c3nc(N4CCOCC4)nc(N4CCOCC4)n3)ccc2o1
- Activity [1]: 0.95%
- Activity [2]: 1.11%
- Activity [3]: Active
- Activity [4]: Non-Toxic
- inhibition in vivo at 30 mg/kg [6]: 63.9%
- Activity [7]: 5.01%
- inhibition in vivo at 10 mg/kg [10]: 41.5%
- Activity [14]: 3.81%
- viability at 8 µM [16]: 37.2%
- inhibition [19]: Active
- inhibition [21]: Active
- Activity [29]: 1.08%
- Activity [31]: 57.88%
- inhibition [32]: Active
- inhibition [33]: Active
- viability at 2 µM [34]: 87%
- viability at 4 µM [37]: 62.6%
